From US12415803B2, “Fused imidazopyridines as reversible inhibitors of Brutons Tyrosine Kinase (BTK)” (Merck Patent GmbH, priority 2018, dated 2025)

Experiments:
full-length human BTK = full-length human BTK (Homo sapiens (Human), UniProt Q06187); experiment: BTK IC50 Enzyme Assay (microfluidic off-chip mobility shift kinase assay); assay type: biochemical; conditions: Btk Enzymatic IC50 Assay, 90 min at 27 C;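 further: Read-out separates phosphorylated peptide product from substrate by their charge-to-mass difference, with IC50 fitted from log inhibitor concentration against percent enzyme activity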
Btk = Btk (Homo sapiens (Human), UniProt Q06187); experiment: Btk PBMC IC50 Cell Assay (anti-IgM-induced CD69 expression on B cells); assay type: cell-based; conditions: anti-IgM-induced CD69 expression on CD19 positive cells in human PBMCs;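 further: freshly isolated human PBMCs, IC50 from concentration-response of the share of CD19+ cells expressing CD69 after anti-IgM BCR stimulation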
Chain of Btk (Q06187 whole entry): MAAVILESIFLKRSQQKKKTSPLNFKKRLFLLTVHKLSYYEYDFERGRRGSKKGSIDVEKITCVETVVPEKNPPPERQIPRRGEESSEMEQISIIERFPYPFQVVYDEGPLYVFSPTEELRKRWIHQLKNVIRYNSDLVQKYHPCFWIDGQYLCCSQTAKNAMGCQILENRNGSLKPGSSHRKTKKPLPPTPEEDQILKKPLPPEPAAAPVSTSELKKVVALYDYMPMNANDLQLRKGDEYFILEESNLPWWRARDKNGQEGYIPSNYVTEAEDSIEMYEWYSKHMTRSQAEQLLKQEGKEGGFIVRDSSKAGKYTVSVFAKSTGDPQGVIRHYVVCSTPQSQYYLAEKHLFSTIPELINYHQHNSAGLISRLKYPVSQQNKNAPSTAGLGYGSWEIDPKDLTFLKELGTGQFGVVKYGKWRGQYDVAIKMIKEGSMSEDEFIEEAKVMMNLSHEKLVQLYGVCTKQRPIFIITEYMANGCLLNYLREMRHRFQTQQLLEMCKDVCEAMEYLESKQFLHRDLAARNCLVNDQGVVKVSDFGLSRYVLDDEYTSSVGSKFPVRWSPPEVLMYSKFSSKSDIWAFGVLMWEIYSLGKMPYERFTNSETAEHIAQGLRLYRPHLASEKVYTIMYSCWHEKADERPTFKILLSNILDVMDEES

Chain of full-length human BTK (Q06187 whole entry): as above

IC50 (full-length human BTK) [µM]	IC50 (Btk) [µM]	Structure (SMILES)
< 0.001	0.001 to 0.01	Cc1nn(C(C)C)cc1-c1nc2c(-c3ccc4c(c3)CCCC[C@H]4NC(=O)c3noc(C(C)(C)C)n3)ccnc2[nH]1 [Compound 61, 5-tert-Butyl-[1,2,4]oxadiazole-3-carboxylic acid {(R)-2-[2-(1-isopropyl-3-methyl-1H-pyrazol-4-yl)-3H-imidazo[4,5-b]pyridin-7-yl]-6,7,8,9-tetrahydro-5H-benzocyclohepten-5-yl}-amide]
0.001 to 0.01	0.01 to 0.1	Cc1nn(C(C)C)cc1-c1nc2c(-c3ccc4c(c3)CCCC[C@@H]4NC(=O)c3noc(C(C)(C)C)n3)ccnc2[nH]1 [Compound 62, 5-tert-Butyl-[1,2,4]oxadiazole-3-carboxylic acid {(S)-2-[2-(1-isopropyl-3-methyl-1H-pyrazol-4-yl)-3H-imidazo[4,5-b]pyridin-7-yl]-6,7,8,9-tetrahydro-5H-benzocyclohepten-5-yl}-amide]
< 0.001	0.001 to 0.01	Cc1nn(C(C)C)cc1-c1nc2c(-c3ccc4c(c3)CCCC[C@H]4NC(=O)c3nc(C(C)(C)C)no3)ccnc2[nH]1 [Compound 63, 3-tert-Butyl-[1,2,4]oxadiazole-5-carboxylic acid {(R)-2-[2-(1-isopropyl-3-methyl-1H-pyrazol-4-yl)-3H-imidazo[4,5-b]pyridin-7-yl]-6,7,8,9-tetrahydro-5H-benzocyclohepten-5-yl}-amide]
< 0.001	0.01 to 0.1	Cc1nn(C)cc1-c1nc2c(-c3ccc4c(c3)CCCC4NC(=O)c3nc(C(C)(C)C)no3)ccnc2[nH]1 (stereo not shown) [Compound 67, 3-tert-Butyl-[1,2,4]oxadiazole-5-carboxylic acid {6-[2-(1,3-dimethyl-1H-pyrazol-4-yl)-3H-imidazo[4,5-b]pyridin-7-yl]-1,2,3,4-tetrahydro-naphthalen-1-yl}-amide]
0.001 to 0.01	0.01 to 0.1	Cc1nn(C)c(C)c1-c1nc2c(-c3ccc4c(c3)CCCC4NC(=O)c3nc(C(C)(C)C)no3)ccnc2[nH]1 (stereo not shown) [Compound 68, 3-tert-Butyl-[1,2,4]oxadiazole-5-carboxylic acid {6-[2-(1,3,5-trimethyl-1H-pyrazol-4-yl)-3H-imidazo[4,5-b]pyridin-7-yl]-1,2,3,4-tetrahydro-naphthalen-1-yl}-amide]
0.001 to 0.01	0.01 to 0.1	Cc1nn(C)c(C)c1-c1nc2nccc(-c3ccc4c(c3)CCCC[C@@H]4NC(=O)c3cc(C(C)(C)C)on3)c2[nH]1 [Compound 71, 5-tert-butyl-N-[(5S)-2-[2-(1,3,5-trimethyl-1H-pyrazol-4-yl)-1H-imidazo[4,5-b]pyridin-7-yl]-6,7,8,9-tetrahydro-5H-benzo[7]annulen-5-yl]-1,2-oxazole-3-carboxamide]
0.001 to 0.01	0.001 to 0.01	Cc1nn(C)c(C)c1-c1nc2c(-c3ccc4c(c3)CCC[C@@H]4NC(=O)c3nc(C(C)(C)C)no3)ccnc2[nH]1 [Compound 73, 3-tert-butyl-N-[(1S)-6-[2-(1,3,5-trimethyl-1H-pyrazol-4-yl)-3H-imidazo[4,5-b]pyridin-7-yl]-1,2,3,4-tetrahydronaphthalen-1-yl]-1,2,4-oxadiazole-5-carboxamide]
< 0.001	0.001 to 0.01	CC(C)(C)c1noc(C(=O)N[C@@H]2CCCc3cc(-c4ccnc5[nH]c(-c6cnn(C7CC7)c6)nc45)ccc32)n1 [Compound 75, 3-tert-butyl-N-[(1R)-6-[2-(1-cyclopropyl-1H-pyrazol-4-yl)-3H-imidazo[4,5-b]pyridin-7-yl]-1,2,3,4-tetrahydronaphthalen-1-yl]-1,2,4-oxadiazole-5-carboxamide]
0.001 to 0.01	0.01 to 0.1	Cc1nn(C(C)C)cc1-c1nc2nccc(-c3ccc4c(c3)CCCC[C@@H]4NC(=O)c3nnc(C(C)(C)C)o3)c2[nH]1 [Compound 77, 5-tert-butyl-N-[(5S)-2-{2-[3-methyl-1-(propan-2-yl)-1H-pyrazol-4-yl]-1H-imidazo[4,5-b]pyridin-7-yl}-6,7,8,9-tetrahydro-5H-benzo[7]annulen-5-yl]-1,3,4-oxadiazole-2-carboxamide]
0.001 to 0.01	> 0.1	Cc1c(-c2nc3nccc(-c4ccc5c(c4)CCCC[C@@H]5NC(=O)c4nnc(C(C)(C)C)o4)c3[nH]2)cnn1C1CCOCC1 [Compound 80, 5-tert-butyl-N-[(5S)-2-{2-[5-methyl-1-(oxan-4-yl)-1H-pyrazol-4-yl]-1H-imidazo[4,5-b]pyridin-7-yl}-6,7,8,9-tetrahydro-5H-benzo[7]annulen-5-yl]-1,3,4-oxadiazole-2-carboxamide]
< 0.001	< 0.001	CC(C)n1cc(-c2nc3nccc(-c4ccc5c(c4)CCCC[C@H]5NC(=O)c4nc(C(C)(C)C)no4)c3[nH]2)cn1 [Compound 82]
< 0.001	0.001 to 0.01	Cc1c(-c2nc3c(-c4ccc5c(c4)CCCCC5NC(=O)c4nnc(C(C)(C)C)o4)ccnc3[nH]2)cnn1C(C)C (stereo not shown) [Compound 84, 5-tert-butyl-N-(2-{2-[5-methyl-1-(propan-2-yl)-1H-pyrazol-4-yl]-3H-imidazo[4,5-b]pyridin-7-yl}-6,7,8,9-tetrahydro-5H-benzo[7]annulen-5-yl)-1,3,4-oxadiazole-2-carboxamide]
< 0.001	0.001 to 0.01	CCn1ncc(-c2nc3c(-c4ccc5c(c4)CCCCC5NC(=O)c4nc(C(C)(C)C)no4)ccnc3[nH]2)c1C (stereo not shown) [Compound 85, 3-tert-butyl-N-{2-[2-(1-ethyl-5-methyl-1H-pyrazol-4-yl)-3H-imidazo[4,5-b]pyridin-7-yl]-6,7,8,9-tetrahydro-5H-benzo[7]annulen-5-yl}-1,2,4-oxadiazole-5-carboxamide]
< 0.001	0.001 to 0.01	Cc1nn(C(C)C)c(C)c1-c1nc2c(-c3ccc4c(c3)CCCC[C@H]4NC(=O)c3nnc(C(C)(C)C)o3)ccnc2[nH]1 [Compound 87, 5-tert-butyl-N-[(5R)-2-{2-[3,5-dimethyl-1-(propan-2-yl)-1H-pyrazol-4-yl]-3H-imidazo[4,5-b]pyridin-7-yl}-6,7,8,9-tetrahydro-5H-benzo[7]annulen-5-yl]-1,3,4-oxadiazole-2-carboxamide]
0.001 to 0.01	> 0.1	Cc1nn(C(C)C)c(C)c1-c1nc2c(-c3ccc4c(c3)CCCC[C@@H]4NC(=O)c3nnc(C(C)(C)C)o3)ccnc2[nH]1 [Compound 88, 5-tert-butyl-N-[(5S)-2-{2-[3,5-dimethyl-1-(propan-2-yl)-1H-pyrazol-4-yl]-3H-imidazo[4,5-b]pyridin-7-yl}-6,7,8,9-tetrahydro-5H-benzo[7]annulen-5-yl]-1,3,4-oxadiazole-2-carboxamide]
0.001 to 0.01	0.01 to 0.1	CCc1cc(-c2nc3nccc(-c4ccc5c(c4)CCCC[C@H]5NC(=O)c4nnc(C(C)(C)C)o4)c3[nH]2)nn1C [Compound 90, 5-tert-butyl-N-[(5R)-2-[2-(5-ethyl-1-methyl-1H-pyrazol-3-yl)-1H-imidazo[4,5-b]pyridin-7-yl]-6,7,8,9-tetrahydro-5H-benzo[7]annulen-5-yl]-1,3,4-oxadiazole-2-carboxamide]
0.001 to 0.01	0.01 to 0.1	Cn1cc(-c2nc3c(-c4ccc5c(c4)CCCC5NC(=O)c4nnc(C(C)(C)C)o4)ccnc3[nH]2)cn1 (stereo not shown) [Compound 104, 5-tert-Butyl-[1,3,4]oxadiazole-2-carboxylic acid {6-[2-(1-methyl-1H-pyrazol-4-yl)-3H-imidazo[4,5-b]pyridin-7-yl]-1,2,3,4-tetrahydro-naphthalen-1-yl}-amide]
< 0.001	0.001 to 0.01	CC(C)n1cc(-c2nc3c(-c4ccc5c(c4)CCCCC5NC(=O)c4nc(C(C)(C)C)no4)ccnc3[nH]2)cn1 (stereo not shown) [Compound 106, 3-tert-Butyl-[1,2,4]oxadiazole-5-carboxylic acid {2-[2-(1-isopropyl-1H-pyrazol-4-yl)-3H-imidazo[4,5-b]pyridin-7-yl]-6,7,8,9-tetrahydro-5H-benzocyclohepten-5-yl}-amide]
< 0.001	< 0.001	Cn1ccc(-c2nc3c(-c4ccc5c(c4)CCCCC5NC(=O)c4nc(C(C)(C)C)no4)ccnc3[nH]2)n1 (stereo not shown) [Compound 109, 3-tert-Butyl-[1,2,4]oxadiazole-5-carboxylic acid {2-[2-(1-methyl-1H-pyrazol-3-yl)-3H-imidazo[4,5-b]pyridin-7-yl]-6,7,8,9-tetrahydro-5H-benzocyclohepten-5-yl}-amide]
< 0.001	0.001 to 0.01	Cc1cc(-c2nc3c(-c4ccc5c(c4)CCCCC5NC(=O)c4nc(C(C)(C)C)no4)ccnc3[nH]2)nn1C (stereo not shown) [Compound 110, 3-tert-Butyl-[1,2,4]oxadiazole-5-carboxylic acid {2-[2-(1,5-dimethyl-1H-pyrazol-3-yl)-3H-imidazo[4,5-b]pyridin-7-yl]-6,7,8,9-tetrahydro-5H-benzocyclohepten-5-yl}-amide]
0.001 to 0.01	0.01 to 0.1	Cc1cc(-c2nc3c(-c4ccc5c(c4)CCCC5NC(=O)c4nc(C(C)(C)C)no4)ccnc3[nH]2)nn1C(C)C (stereo not shown) [Compound 112, 3-tert-Butyl-[1,2,4]oxadiazole-5-carboxylic acid {6-[2-(1-isopropyl-5-methyl-1H-pyrazol-3-yl)-3H-imidazo[4,5-b]pyridin-7-yl]-1,2,3,4-tetrahydro-naphthalen-1-yl}-amide]
< 0.001	0.001 to 0.01	Cc1cc(-c2nc3c(-c4ccc5c(c4)CCCCC5NC(=O)c4nc(C5(C)CC5)no4)ccnc3[nH]2)nn1C(C)C (stereo not shown) [Compound 117, 3-(1-Methyl-cyclopropyl)-[1,2,4]oxadiazole-5-carboxylic acid {2-[2-(1-isopropyl-5-methyl-1H-pyrazol-3-yl)-3H-imidazo[4,5-b]pyridin-7-yl]-6,7,8,9-tetrahydro-5H-benzocyclohepten-5-yl}-amide]
0.001 to 0.01	> 0.1	Cc1nn(C)c(C)c1-c1nc2c(-c3ccc4c(c3)CCCC[C@@H]4NC(=O)c3nnc(C(C)(C)C)o3)ccnc2[nH]1 [Compound 122, 5-tert-Butyl-[1,3,4]oxadiazole-2-carboxylic acid {(S)-2-[2-(1,3,5-trimethyl-1H-pyrazol-4-yl)-3H-imidazo[4,5-b]pyridin-7-yl]-6,7,8,9-tetrahydro-5H-benzocyclohepten-5-yl}-amide]
